Experimental data: ChEMBL document CHEMBL1201862, “PubChem BioAssay data set” (2004)
“And” between values parts separate entries of the source, which are not always exact repeats. Equal entries are not always repeated. The source made the active and inactive calls.

How the values were obtained:
[1] = biological target: T1, Heat shock factor protein 1 (Mus musculus, UniProt P38532); experiment: decrease of HSF1-responsive luciferase luminescence – cell-based, NIH3T3, dose retest, confirmation (AID 2382); format: functional;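 note: NIH3T3 fibroblasts with HSF1-driven luciferase reporter stressed by proteasome inhibitor MG132; luminescence from HSF1-driven luciferase expression after 8 hours of MG132 stress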
T1 sequence (P38532 whole entry): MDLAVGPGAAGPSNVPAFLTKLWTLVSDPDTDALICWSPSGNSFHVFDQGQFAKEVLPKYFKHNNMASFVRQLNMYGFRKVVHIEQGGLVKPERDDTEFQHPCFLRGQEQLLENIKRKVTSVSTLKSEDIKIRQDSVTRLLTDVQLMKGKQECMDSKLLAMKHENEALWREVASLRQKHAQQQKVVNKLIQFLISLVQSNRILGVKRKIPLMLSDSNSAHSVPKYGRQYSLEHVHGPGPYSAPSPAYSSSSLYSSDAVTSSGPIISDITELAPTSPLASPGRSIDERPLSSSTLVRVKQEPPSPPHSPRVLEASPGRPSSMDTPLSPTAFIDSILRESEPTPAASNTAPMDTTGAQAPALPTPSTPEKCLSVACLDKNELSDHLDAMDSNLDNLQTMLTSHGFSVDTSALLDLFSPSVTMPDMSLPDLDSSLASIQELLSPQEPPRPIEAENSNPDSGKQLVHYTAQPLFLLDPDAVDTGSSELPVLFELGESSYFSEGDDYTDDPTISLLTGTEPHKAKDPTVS

[2] = biological target: Neurotensin receptor type 1 (Homo sapiens, UniProt P30989); format: functional;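 note: Image-based confirmatory dose-response assay measuring agonist activity at NTR1; NTR1-expressing U2OS osteosarcoma cells imaged for beta-arrestin GFP spot formation; agonist potency where compounds increase beta-arrestin recruitment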
Chain of Neurotensin receptor type 1 (P30989 whole entry): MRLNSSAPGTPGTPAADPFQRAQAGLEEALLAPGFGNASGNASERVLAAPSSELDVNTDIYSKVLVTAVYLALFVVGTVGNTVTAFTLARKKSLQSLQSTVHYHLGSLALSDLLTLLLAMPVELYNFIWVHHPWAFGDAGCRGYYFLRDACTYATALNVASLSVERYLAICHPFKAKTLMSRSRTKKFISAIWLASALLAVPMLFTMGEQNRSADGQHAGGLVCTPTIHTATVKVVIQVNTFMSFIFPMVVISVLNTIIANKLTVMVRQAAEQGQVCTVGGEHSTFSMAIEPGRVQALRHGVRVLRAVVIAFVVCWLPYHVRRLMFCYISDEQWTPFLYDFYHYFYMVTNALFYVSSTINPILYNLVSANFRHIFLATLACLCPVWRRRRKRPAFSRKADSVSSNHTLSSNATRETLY

[3] = biological target: COUP transcription factor 2 (Homo sapiens, UniProt P24468); experiment: Luminescence-based cell-based high throughput dose response assay to identify inhibitors of COUP-TFII (NR2F2).; format: functional;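 note: HEK293 cells transiently cotransfected with COUP-TFII expression vector and reporter; luciferase reporter luminescence driven by COUP-TFII from the pX2-168 reporter plasmid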
Chain of COUP transcription factor 2 (P24468 whole entry): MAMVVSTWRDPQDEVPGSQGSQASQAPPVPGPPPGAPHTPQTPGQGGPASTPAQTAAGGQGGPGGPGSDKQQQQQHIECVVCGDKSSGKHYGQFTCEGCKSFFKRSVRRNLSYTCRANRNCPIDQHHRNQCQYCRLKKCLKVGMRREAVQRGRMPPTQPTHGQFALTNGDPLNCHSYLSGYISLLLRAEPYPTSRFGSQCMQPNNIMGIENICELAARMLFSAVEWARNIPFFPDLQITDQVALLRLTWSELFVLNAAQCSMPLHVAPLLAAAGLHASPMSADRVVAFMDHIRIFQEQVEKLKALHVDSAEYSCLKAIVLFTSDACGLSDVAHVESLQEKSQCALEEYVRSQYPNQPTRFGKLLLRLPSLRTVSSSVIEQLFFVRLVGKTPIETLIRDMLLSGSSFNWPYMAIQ

[4] = microbe, parasite or virus in culture; format: functional; details: Mycobacterium tuberculosis
[5] = Luminescence-based dose response cell-based high throughput screening assay for cytotoxic compounds using the IEC-6 intestinal epithelial cell line. [Related pubchem assays: 1858 (Summary AID.), 1825 (Counterscreen.), 1907 (Confirmation screen.)]; format: functional
[6] = blockers of HIV-1 envelope-mediated cell-cell fusion – cherry-pick, dose response (AID 652057); format: functional, cell-based
[7] = viability loss in CEM21 cells – cell-based, CellTiter-Glo luminescence, cherry-picked, cytotoxicity control for viral fusion inhibitor project, dose response (AID 652042); format: functional;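 note: potency for signal decrease meaning cytotoxicity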
[8] = blockers of HIV-1 ZM109 envelope-driven cell-cell fusion – HeLa effector, CEM target cells, luciferase, cherry-pick, dose response (AID 652058); format: functional, cell-based;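 note: luciferase signal from HIV-1 Env mediated cell-cell fusion of effector and target cells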
[9] = off-target signal loss in HeLa-CEM21 co-culture – HeLa F-luc CTL cells, cherry-picked, counter-screen for HIV-1 Env fusion inhibitor project, dose response (AID 652040); format: functional, cell-based;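 note: potency for signal decrease marking cytotoxic or nonspecific inhibition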
[10] = HIV-1 AD8 envelope cell-cell fusion blockers – cherry-pick, dose response (AID 652062); format: functional, cell-based;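 note: luciferase signal from cell-cell fusion driven by HIV-1 clade B AD8 Env; potency is for inhibitors of fusion seen as a drop in luminescence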
[11] = biological target: RNA-editing ligase 1, mitochondrial (Trypanosoma brucei brucei, UniProt P86926); experiment: inhibition of trypanosome RNA editing ligase – biochemical, fluorescence, Trypanosoma brucei, dose response (AID 1117295); format: functional
Chain of RNA-editing ligase 1, mitochondrial (P86926 whole entry): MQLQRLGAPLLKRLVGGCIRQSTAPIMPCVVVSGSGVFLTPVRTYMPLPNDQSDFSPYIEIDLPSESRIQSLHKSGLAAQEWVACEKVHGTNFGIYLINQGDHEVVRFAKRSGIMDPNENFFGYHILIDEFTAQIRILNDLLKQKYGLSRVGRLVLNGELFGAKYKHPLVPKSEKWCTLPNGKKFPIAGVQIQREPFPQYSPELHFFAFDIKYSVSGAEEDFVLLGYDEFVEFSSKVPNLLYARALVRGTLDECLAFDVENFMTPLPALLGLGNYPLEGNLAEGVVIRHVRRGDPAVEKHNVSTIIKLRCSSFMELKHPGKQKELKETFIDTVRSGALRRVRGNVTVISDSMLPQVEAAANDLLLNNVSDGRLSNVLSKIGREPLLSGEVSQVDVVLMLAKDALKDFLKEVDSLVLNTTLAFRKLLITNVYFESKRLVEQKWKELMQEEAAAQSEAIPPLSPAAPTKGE

[12] = system: HEK293; experiment: cells; details: Homo sapiens
[13] = system: HEK293; experiment: cells; details: Homo sapiens; remark: listed apart in the source
[14] = biological target: NAD-dependent protein deacylase sirtuin-5, mitochondrial (Homo sapiens, UniProt Q9NXA8); experiment: sirtuin-5 deacylation blockers, concentration series – biochemical, fluorescence imaging, cherry-pick, set 5, dose response (AID 720591);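 note: desuccinylation of succinyl peptide AMC substrate read as fluorescence after trypsin release; potency of inhibitors that lower fluorescence and may act on trypsin instead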
Chain of NAD-dependent protein deacylase sirtuin-5, mitochondrial (Q9NXA8 whole entry): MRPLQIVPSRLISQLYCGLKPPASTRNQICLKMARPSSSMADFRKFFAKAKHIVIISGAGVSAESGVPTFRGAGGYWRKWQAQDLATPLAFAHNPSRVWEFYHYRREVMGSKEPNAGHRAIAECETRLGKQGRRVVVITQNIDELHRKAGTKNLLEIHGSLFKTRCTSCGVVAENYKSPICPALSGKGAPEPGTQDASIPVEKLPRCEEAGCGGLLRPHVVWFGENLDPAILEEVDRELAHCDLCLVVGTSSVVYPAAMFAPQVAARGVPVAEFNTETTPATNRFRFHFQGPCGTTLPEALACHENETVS

[15] = viability loss in THP-1 monocytes – THP-1 cells, cytotoxicity control for Vif-APOBEC3G degradation inhibitor project, dose response (AID 1117359); format: functional; details: THP-1
[16] = potency of ADAM10 substrate cleavage blockers – biochemical, QFRET, dose response (AID 743254);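 note: ADAM10 enzyme with the DM2 quenched FRET peptide as substrate; EDANS fluorescence gain as the protease cuts the substrate; inhibitor potency against ADAM10 proteolytic activity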
[17] = biological target: T2, Disintegrin and metalloproteinase domain-containing protein 17 (Homo sapiens, UniProt P78536); experiment: exosite inhibitors of ADAM17, dose response, biochemical (AID 743260)
T2 sequence (P78536 whole entry, the tested form may be a part): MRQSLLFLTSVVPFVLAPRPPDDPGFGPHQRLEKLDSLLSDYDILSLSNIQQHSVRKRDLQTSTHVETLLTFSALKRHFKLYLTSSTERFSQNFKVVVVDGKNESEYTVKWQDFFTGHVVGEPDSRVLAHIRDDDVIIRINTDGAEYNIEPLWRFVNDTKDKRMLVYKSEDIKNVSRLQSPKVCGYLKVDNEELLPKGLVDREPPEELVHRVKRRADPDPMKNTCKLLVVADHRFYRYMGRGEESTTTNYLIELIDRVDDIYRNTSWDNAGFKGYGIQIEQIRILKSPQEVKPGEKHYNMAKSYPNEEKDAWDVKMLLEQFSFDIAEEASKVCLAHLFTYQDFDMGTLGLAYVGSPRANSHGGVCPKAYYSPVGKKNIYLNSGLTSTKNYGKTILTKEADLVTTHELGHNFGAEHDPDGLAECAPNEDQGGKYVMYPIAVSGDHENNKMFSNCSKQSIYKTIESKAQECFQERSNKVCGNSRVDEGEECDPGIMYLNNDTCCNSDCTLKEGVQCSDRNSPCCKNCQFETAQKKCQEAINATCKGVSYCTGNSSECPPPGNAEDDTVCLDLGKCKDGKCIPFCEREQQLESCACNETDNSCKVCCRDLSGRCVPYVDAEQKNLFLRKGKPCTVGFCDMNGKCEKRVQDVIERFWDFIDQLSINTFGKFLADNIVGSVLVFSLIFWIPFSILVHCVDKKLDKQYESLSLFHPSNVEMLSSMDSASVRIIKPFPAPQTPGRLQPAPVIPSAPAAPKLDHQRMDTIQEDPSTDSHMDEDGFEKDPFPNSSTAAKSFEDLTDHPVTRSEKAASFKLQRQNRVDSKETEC

[18] = biological target: T2, Disintegrin and metalloproteinase domain-containing protein 17; experiment: inhibition of ADAM17 substrate cleavage – biochemical, quenched FRET substrate, counter-screen for ADAM10 exosite inhibitor project, dose response (AID 743253)
[19] = inhibition of Env-driven cell fusion – HIV entry, plate reader, dry powder, dose response (AID 687023); format: functional, cell-based
[20] = viability loss in CEM21 cells – cell-based, plate reader, dry powder, cytotoxicity control, dose response (AID 687026); format: functional
[21] = biological target: T3, Histone-lysine N-methyltransferase NSD2 (Homo sapiens, UniProt O96028); format: biochemical
T3 sequence (O96028 whole entry): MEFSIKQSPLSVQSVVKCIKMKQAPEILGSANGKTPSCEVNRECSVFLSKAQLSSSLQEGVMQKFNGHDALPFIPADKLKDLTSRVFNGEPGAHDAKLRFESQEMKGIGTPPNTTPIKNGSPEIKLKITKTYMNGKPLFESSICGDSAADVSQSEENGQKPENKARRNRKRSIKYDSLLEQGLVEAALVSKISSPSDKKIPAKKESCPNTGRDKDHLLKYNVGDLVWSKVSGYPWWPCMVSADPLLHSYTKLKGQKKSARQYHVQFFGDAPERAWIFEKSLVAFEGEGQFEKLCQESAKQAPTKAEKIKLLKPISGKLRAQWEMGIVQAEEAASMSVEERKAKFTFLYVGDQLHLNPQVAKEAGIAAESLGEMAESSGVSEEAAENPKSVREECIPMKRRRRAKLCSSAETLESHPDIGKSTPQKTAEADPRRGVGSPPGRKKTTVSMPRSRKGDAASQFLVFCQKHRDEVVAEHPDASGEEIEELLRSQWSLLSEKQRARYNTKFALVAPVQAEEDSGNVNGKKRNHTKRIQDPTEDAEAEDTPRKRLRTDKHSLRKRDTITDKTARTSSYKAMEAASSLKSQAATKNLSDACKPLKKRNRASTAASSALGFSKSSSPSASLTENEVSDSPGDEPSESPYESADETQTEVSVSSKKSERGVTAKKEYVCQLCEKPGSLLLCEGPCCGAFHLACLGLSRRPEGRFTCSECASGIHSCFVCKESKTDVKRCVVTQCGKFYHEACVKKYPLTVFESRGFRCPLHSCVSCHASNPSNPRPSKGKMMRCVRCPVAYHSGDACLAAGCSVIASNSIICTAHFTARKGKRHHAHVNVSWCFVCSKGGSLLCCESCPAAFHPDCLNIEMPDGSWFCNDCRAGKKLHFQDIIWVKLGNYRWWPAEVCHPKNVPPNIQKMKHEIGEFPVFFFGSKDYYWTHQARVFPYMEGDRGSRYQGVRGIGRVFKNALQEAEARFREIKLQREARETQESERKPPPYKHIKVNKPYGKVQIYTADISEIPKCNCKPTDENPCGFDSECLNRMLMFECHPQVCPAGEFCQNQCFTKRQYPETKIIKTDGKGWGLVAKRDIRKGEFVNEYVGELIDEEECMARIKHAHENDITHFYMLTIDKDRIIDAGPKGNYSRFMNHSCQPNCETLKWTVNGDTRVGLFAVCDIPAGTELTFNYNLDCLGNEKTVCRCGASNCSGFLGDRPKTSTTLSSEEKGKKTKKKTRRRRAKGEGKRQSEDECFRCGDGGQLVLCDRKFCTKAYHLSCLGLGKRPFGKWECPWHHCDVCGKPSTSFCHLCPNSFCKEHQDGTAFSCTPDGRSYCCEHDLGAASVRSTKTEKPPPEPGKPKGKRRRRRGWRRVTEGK

[22] = biological target: 1-phosphatidylinositol 4,5-bisphosphate phosphodiesterase gamma-1 (Homo sapiens, UniProt P19174); experiment: Counterscreen for inhibitors of phospholipase C isozymes (PLC-B3): Fluorescence-based biochemical high throughput dose response assay to identify inhibitors of phospholipase C isozymes (PLC-gamma1).
Chain of 1-phosphatidylinositol 4,5-bisphosphate phosphodiesterase gamma-1 (P19174 whole entry): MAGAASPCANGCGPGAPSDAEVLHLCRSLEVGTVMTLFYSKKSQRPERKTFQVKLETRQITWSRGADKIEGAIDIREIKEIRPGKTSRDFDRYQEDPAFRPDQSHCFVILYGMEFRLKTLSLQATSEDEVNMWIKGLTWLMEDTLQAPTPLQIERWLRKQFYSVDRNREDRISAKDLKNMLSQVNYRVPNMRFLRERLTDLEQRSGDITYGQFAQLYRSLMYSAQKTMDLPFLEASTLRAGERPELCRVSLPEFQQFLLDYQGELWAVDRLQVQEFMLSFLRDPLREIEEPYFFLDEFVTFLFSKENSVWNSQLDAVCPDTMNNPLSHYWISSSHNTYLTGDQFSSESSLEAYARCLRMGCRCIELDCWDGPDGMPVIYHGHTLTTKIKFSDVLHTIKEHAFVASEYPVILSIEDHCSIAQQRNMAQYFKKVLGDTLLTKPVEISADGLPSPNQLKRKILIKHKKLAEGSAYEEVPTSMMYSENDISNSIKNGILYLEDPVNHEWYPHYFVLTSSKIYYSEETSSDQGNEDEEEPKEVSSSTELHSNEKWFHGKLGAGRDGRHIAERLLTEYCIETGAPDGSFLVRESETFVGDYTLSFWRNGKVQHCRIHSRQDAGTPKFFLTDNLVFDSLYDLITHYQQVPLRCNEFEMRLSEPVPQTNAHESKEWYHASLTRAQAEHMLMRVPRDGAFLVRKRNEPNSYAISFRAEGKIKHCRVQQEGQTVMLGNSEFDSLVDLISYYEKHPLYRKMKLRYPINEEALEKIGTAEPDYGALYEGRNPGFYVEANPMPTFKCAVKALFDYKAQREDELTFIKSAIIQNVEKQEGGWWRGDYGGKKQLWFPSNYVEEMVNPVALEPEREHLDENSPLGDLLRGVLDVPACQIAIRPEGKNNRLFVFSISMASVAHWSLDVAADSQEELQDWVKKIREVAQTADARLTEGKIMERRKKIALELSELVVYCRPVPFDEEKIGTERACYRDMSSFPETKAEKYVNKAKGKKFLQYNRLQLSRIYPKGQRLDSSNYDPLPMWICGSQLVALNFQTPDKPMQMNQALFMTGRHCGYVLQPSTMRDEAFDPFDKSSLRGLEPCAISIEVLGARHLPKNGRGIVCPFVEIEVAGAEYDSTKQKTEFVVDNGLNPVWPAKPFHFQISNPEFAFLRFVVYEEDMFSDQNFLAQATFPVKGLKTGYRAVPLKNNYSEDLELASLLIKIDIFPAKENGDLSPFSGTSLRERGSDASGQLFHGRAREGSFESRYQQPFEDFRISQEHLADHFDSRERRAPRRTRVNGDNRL

[23] = biological target: 1-phosphatidylinositol 4,5-bisphosphate phosphodiesterase beta-3 (Homo sapiens, UniProt Q01970); experiment: Fluorescence-based biochemical high throughput dose response assay to identify inhibitors of phospholipase C isozymes (PLC-B3).
Chain of 1-phosphatidylinositol 4,5-bisphosphate phosphodiesterase beta-3 (Q01970 whole entry): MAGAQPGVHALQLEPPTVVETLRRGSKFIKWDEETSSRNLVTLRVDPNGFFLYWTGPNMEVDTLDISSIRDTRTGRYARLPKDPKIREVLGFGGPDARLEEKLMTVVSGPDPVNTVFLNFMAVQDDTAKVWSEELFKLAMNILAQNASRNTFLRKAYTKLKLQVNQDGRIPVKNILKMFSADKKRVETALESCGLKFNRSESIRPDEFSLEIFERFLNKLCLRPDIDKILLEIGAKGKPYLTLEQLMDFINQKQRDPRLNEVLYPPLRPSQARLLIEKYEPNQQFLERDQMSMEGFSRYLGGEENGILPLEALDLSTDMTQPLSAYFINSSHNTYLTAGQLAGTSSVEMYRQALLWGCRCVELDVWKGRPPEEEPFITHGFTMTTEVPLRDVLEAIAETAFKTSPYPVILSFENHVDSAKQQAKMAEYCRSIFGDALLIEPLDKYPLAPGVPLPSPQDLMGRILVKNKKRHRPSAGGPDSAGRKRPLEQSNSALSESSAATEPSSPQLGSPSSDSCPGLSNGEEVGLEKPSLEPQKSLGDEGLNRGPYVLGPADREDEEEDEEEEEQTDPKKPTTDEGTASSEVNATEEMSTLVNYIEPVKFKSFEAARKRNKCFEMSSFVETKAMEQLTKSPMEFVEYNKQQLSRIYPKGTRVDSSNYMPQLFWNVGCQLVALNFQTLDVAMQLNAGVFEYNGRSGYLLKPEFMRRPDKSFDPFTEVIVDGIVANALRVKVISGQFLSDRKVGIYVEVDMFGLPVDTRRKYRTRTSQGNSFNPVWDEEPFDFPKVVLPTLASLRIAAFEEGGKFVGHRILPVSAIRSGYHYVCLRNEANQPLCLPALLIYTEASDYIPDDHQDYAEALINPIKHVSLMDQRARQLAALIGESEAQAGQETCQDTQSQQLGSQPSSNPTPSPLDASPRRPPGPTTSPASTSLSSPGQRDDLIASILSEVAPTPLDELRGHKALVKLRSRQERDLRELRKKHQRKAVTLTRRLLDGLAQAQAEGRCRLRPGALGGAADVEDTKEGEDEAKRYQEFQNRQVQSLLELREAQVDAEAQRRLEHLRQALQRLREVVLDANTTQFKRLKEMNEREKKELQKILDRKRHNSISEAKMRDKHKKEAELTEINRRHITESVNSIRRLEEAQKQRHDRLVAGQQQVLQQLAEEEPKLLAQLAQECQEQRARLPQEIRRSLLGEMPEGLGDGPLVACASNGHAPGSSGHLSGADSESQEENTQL

[24] = growth inhibition of yeast DHODH-expressing 3D7 parasites – SYBR Green, dry powder samples, dose response (AID 1159570); format: functional, cell-based;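 note: parasite growth measured after 72 hours of compound exposure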
[25] = toxicity to human HepG2 hepatoma cells – cell-based, plate reader, dry powder samples, cytotoxicity control, dose response (AID 1159569); format: functional;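 note: inhibitor potency with signal falling toward the positive control level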
[26] = Dd2 parasite growth inhibition in erythrocytes – SYBR Green, dry powder samples, set 9, dose response (AID 1159568); format: functional, cell-based
[27] = P. falciparum Dd2 growth inhibitors, dose response, SYBR Green, cherry-picked samples (AID 1159567); format: functional, cell-based
[28] = Dd2 malaria parasite growth inhibition potency – SYBR Green, dry powder samples, dose response (AID 1159566); format: functional, cell-based;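 note: potency for growth inhibition with lower SYBR green DNA signal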
[29] = growth inhibition of PfATP4-mutant resistant parasites – NITD609-resistant line, SYBR Green, dry powder, dose response (AID 1159571); format: functional, cell-based;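 note: parasites synchronized at ring stage by sorbitol before testing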

With `CCOC(=O)c1c(C)[nH]c(C(=O)OCC(=O)Nc2sccc2C(N)=O)c1C` the EC50 [1] was > 195 µM (not active), the EC50 [2] was 3.35 µM (active) and the IC50 [3] was 8.54 µM (active).

In the case of `CC(C)Cc1ccc(C(C)C(=N)NCCc2ccccc2)cc1` (centres undefined), the CC50 [4] is reported as 12.1 µM (active), the IC50 [5] is reported as 3.3 µM (active) and the AC50 [6] is reported as 2.78 µM (active). For the same compound, the AC50 [7] was 14.3 µM (active), the AC50 [8] was 4.62 µM (active) and the AC50 [9] was 7.77 µM (active). The AC50 [10] was 21.6 µM (active), the IC50 [11] was > 96.6 µM (inactive) and the EC50 [12] was > 59.7 µM (inactive). For the same compound, the EC50 [13] was > 59.7 µM (inactive).

For `CCOC(=O)C1(CCOC)CCN(Cc2cnc(-c3cccc(C)c3)nc2)CC1`, the AC50 [14] was > 30 µM (inactive) and the CC50 [15] was > 40 µM (active).

With `CC(=NNC(=O)CSc1nnc(-c2ccc(C(C)(C)C)cc2)n1-c1ccccc1)c1cccc2ccccc12` the IC50 [16] was > 69.5 µM (inactive), the IC50 [17] was > 69.5 µM (inactive) and the IC50 [18] was > 69.5 µM (inactive).

With `CCCOc1ccc(S(=O)(=O)NCc2cccnc2)cc1` the AC50 [19] was 13.1 µM (active) and 17.6 µM (active) and the AC50 [20] was > 70 µM (inactive).

With `O=C(CCCN1C(=O)/C(=C/c2ccco2)SC1=S)Nc1cccc(C(=O)O)c1` the AC50 [21] was > 20 µM (inactive), the IC50 [22] was > 122 µM (inactive) and the IC50 [23] was > 122 µM (inactive).

In the case of `CCCNC(=O)N1[C@H](C#N)[C@H](c2ccc(-c3ccccc3F)cc2)[C@@H]1CO`, the AC50 [24] is reported as 6.61 µM (active), the AC50 [25] is reported as 1.6 µM (active) and the AC50 [26] is reported as 0.608 µM (active). For the same compound, the AC50 [27] was 0.522 µM (active), the AC50 [28] was 0.377 µM (active) and the AC50 [29] was 0.511 µM (active).
